According to patent publication US20240417410A1, “TRICYCLIC COMPOUNDS FOR THE TREATMENT OF CANCER” (Hoffmann-La Roche Inc., priority 2023, published 2024):
Where two headings read alike, the source gives them in different places.

What was measured:
Assay in all cases: Cell proliferation, CTG 3D, 7 d
Assay type in all cases: cell-based
A549 = conditions: Homo sapiens
Description: (§1) On Day-1, cells were plated in 384-well round-bottom ultra-low adhesion plates (cat. Corning 3830, with cell density adjusted according to Table 3. The assay plate was then centrifuged at 1000 rpm for 1 minute to ensure even distribution of cells. The plate was incubated at 37° C. in a 5% CO2 atmosphere (It is worth noting that for SW1271 cell plate, it needs to be incubated in an incubator without additional CO2).
(§2) On Day 0, Example 24 or A122 was added to each well using a Tecan HP D300E dispenser, with a 3-fold dilution across 9 doses. The final concentration of DMSO was normalized to 0.2%. The assay plate was then centrifuged at 1000 rpm for 1 minute and incubated for 7 days.
(§3) On Day 7, CellTiter-Glo (CTG) 3D reagent (Promega G9683) was dispensed into each well of a 384-well plate using a multi-drop dispenser (Thermo Scientific 66413). A liquid handling automation workstation (Bravo with a 384-well head) was used to mix the CTG reagents. Plates were left on a shaker for 30 minutes at 450 rpm, shielded from light.
(§4) For data analysis, the XL-fit software (Supplier: ID Business Solutions Ltd., Software version: XL fit 5.0) was utilized. The percentage of inhibition was calculated using the formula: Inhibition %=(Max-Sample value)/(Max-Min)×100. Curve fitting was performed as follows: For complete dose-response curves, the relative IC50 was reported from the fit. For incomplete curves, if minimal inhibition was greater than 50%, an IC50 less than the lowest compound concentration was reported. If minimal inhibition was between 20% and 50%, the bottom was locked at 0% and the IC50 was reported. If maximal inhibition was less than 50%, an IC50 greater than the highest compound concentration was reported.

CAL-62 = conditions: Homo sapiens
Description: as §1, §2, §3, §4

CFPAC-1 = conditions: Homo sapiens; CFPAC-1, KRAS (G12V)
Description: as §1, §2, §3, §4

Capan-2 = conditions: Homo sapiens
Description: as §1, §2, §3, §4

DV-90 = conditions: Homo sapiens
Description: as §1, §2, §3, §4

HCT-15 = conditions: Homo sapiens
Description: as §1, §2, §3, §4

KNS-62 = conditions: Homo sapiens
Description: as §1, §2, §3, §4

LoVo = conditions: Homo sapiens
Description: as §1, §2, §3, §4

MDA-MB-134-VI = conditions: Homo sapiens
Description: as §1, §2, §3, §4

MOLT-4 = conditions: Homo sapiens; MOLT-4, NRAS (p.G12C)
Description: as §1, §2, §3, §4

Mia-pa-ca-2 = conditions: Homo sapiens, MIA PaCa-2; Mia-pa-ca-2, KRAS (G12C)
Description: as §1, §2, §3, §4

Mino = conditions: Homo sapiens
Description: as §1, §2, §3, §4

NCI-H1573 = conditions: Homo sapiens
Description: as §1, §2, §3, §4

NCI-H2030 = conditions: Homo sapiens; NCI-H2030, KRAS (G12C)
Description: as §1, §2, §3, §4

NCI-H2087 = conditions: Homo sapiens
Description: as §1, §2, §3, §4

NCI-H2135 = conditions: Homo sapiens
Description: as §1, §2, §3, §4

NCI-H727 = conditions: Homo sapiens; NCI-H727, KRAS (G12V)
Description: as §1, §2, §3, §4

NCI-H747 = conditions: Homo sapiens
Description: as §1, §2, §3, §4

NCI-H929 = conditions: Homo sapiens
Description: as §1, §2, §3, §4

NOMO-1 = conditions: Homo sapiens
Description: as §1, §2, §3, §4

PA-1 = conditions: Homo sapiens; PA-1, NRAS (p.G12D)
Description: as §1, §2, §3, §4

Panc 02.03 = conditions: Homo sapiens; Panc 02.03, KRAS (G12D)
Description: as §1, §2, §3, §4

RD = conditions: Homo sapiens
Description: as §1, §2, §3, §4

RPMI8226 = conditions: Homo sapiens, RPMI-8226
Description: as §1, §2, §3, §4

SW 480 = conditions: Homo sapiens, SW480; SW 480, KRAS (G12V)
Description: as §1, §2, §3, §4

SW 948 = conditions: Homo sapiens, SW948
Description: as §1, §2, §3, §4

TYK-nu = conditions: Homo sapiens
Description: as §1, §2, §3, §4

Compound: CCn1c(-c2cc(N3CCN(C)CC3)cnc2[C@H](C)OC)c2c3cc(ccc31)-c1csc(n1)C[C@H](NC(=O)[C@H]1C[C@@H]1C)C(=O)N1CCC[C@H](N1)C(=O)OCC(C)(C)O2 [Example A122, reference compound]
- IC50 (A549; A549): 1.1 nM
- IC50 (CAL-62; CAL-62): 8.8 nM
- IC50 (CFPAC-1): 1.1 nM
- IC50 (Capan-2; Capan-2, KRAS (G12V), read-out: IC50): 0.59 nM
- IC50 (DV-90; DV-90): 4.7 nM
- IC50 (HCT-15; HCT-15): 100 nM
- IC50 (KNS-62; KNS-62): 6.4 nM
- IC50 (LoVo): 0.36 nM
- IC50 (MDA-MB-134-VI): 2.6 nM
- IC50 (MOLT-4): 1000 nM
- IC50 (Mia-pa-ca-2): 0.082 nM
- IC50 (Mino; MINO): 1000 nM
- IC50 (NCI-H1573; NCI-H1573): 1.2 nM
- IC50 (NCI-H2030): 0.56 nM
- IC50 (NCI-H2087; NCI-H2087): 0.44 nM
- IC50 (NCI-H2135): 1.2 nM
- IC50 (NCI-H727): 0.16 nM
- IC50 (NCI-H747; NCI-H747): 0.91 nM
- IC50 (NCI-H929; NCI-H929): 8.7 nM
- IC50 (NOMO-1; NOMO-1): 0.86 nM
- IC50 (PA-1): 0.42 nM
- IC50 (Panc 02.03): 5.2 nM
- IC50 (RD): 0.7 nM
- IC50 (RPMI8226): 0.52 nM
- IC50 (SW 480): 2 nM
- IC50 (SW 948): 8.5 nM
- IC50 (TYK-nu): 0.68 nM

Compound: CO[C@@H](C)c1ncc(N2CCN(C)CC2)cc1-c1c2c3cc(cc4c3n1CCC4)-c1csc(n1)C[C@H](NC(=O)[C@H]1[C@H](C)[C@@H]1C)C(=O)N1CCC[C@H](N1)C(=O)OCC(C)(C)C2 (atropisomer, axis not shown; (M)) [Example 24, (1r,2R,3S)-N-[(7S,13S)-(20M)-20-[2-[(1S)-1-methoxyethyl]-5-(4-methylpiperazin-1-yl)-3-pyridyl]-17,17-dimethyl-8,14-dioxo-15-oxa-4-thia-9,21,30,31-tetrazahexacyclo[23.3.1.1^2,5.1^9,13.0^19,27.0^21,26]hentriaconta-1 (28),2,5 (31), 19,25 (29),26-hexaen-7-yl]-2,3-dimethyl-cyclopropanecarboxamide]
- IC50 (A549; A549, KRAS (G12S), read-out: IC50): 0.72 nM
- IC50 (CAL-62; CAL-62, KRAS (G12R), read-out: IC50): 1.1 nM
- IC50 (CFPAC-1): 0.54 nM
- IC50 (Capan-2; Capan-2): 0.23 nM
- IC50 (DV-90; DV-90, KRAS (G13D), read-out: IC50): 3.9 nM
- IC50 (HCT-15; HCT-15, KRAS (G13D), read-out: IC50): 100 nM
- IC50 (KNS-62; KNS-62, HRAS (p.Q61L), read-out: IC50): 2.6 nM
- IC50 (LoVo; KRAS (G13D), read-out: IC50): 0.55 nM
- IC50 (MDA-MB-134-VI; KRAS (G12R), read-out: IC50): 1.5 nM
- IC50 (MOLT-4): 1000 nM
- IC50 (Mia-pa-ca-2): 0.064 nM
- IC50 (Mino; Mino, NRAS (p.G13D), read-out: IC50): 3.8 nM
- IC50 (NCI-H1573; NCI-H1573, KRAS (G12A), read-out: IC50): 0.82 nM
- IC50 (NCI-H2030): 0.34 nM
- IC50 (NCI-H2087; NCI-H2087, NRAS (p.Q61K), read-out: IC50): 0.21 nM
- IC50 (NCI-H2135; NCI-H2135, NRAS (p.Q61K), read-out: IC50): 0.71 nM
- IC50 (NCI-H727): 0.14 nM
- IC50 (NCI-H747; NCI-H747, KRAS (G13D), read-out: IC50): 0.72 nM
- IC50 (NCI-H929; NCI-H929, NRAS (p.G13D), read-out: IC50): 7.3 nM
- IC50 (NOMO-1; NOMO-1, KRAS (G13D), read-out: IC50): 0.47 nM
- IC50 (PA-1): 0.46 nM
- IC50 (Panc 02.03): 3.2 nM
- IC50 (RD; NRAS (p.Q61H), read-out: IC50): 0.36 nM
- IC50 (RPMI8226; RPMI8226, KRAS (G12A), read-out: IC50): 0.38 nM
- IC50 (SW 480): 1.2 nM
- IC50 (SW 948; SW 948, KRAS (Q61L), read-out: IC50): 2.9 nM
- IC50 (TYK-nu; TYK-nu, NRAS (p.G12D and p.Q61K), read-out: IC50): 0.34 nM
